Molecules are shown by their SMILES. Where “and” joins values, the source holds several entries; their conditions need not be identical. Equal values may be shown once.

The test system of assay [1] is Staphylococcus epidermidis. Description: Bactericidal activity of NCT without and with heparin (CFU counts). The class given is cell-based.
Assay [2] relates to Candida albicans, CBS 5982. Description: Fungicidal activity of NCT without and with heparin (CFU counts). To be noted: 1% NCT, 125 IE/mL heparin, pH 7.1, 37° C., 30-120 min. The class given is cell-based. As to the method:
FIG. 9 presents a plot of fungicidal activity of 1% NCT without and with 125 IE/mL heparin against Candida albicans (CBS 5982) at pH 7.1 and 37° C. Mean values±standard error of the mean of three independent experiments. P>0.05 between NCT without and NCT with heparin.
NCT was dissolved in 0.1 M phosphate buffer containing either 125 IE/mL heparin or no heparin. The final NCT concentration was 1%. Yeast (Candida albicans, CBS 5982) grown in tryptic soy broth overnight was washed twice in saline and then suspended in the NCT and NCT/heparin solutions. Controls were performed with the yeast suspended in 0.1 M phosphate buffer without additives and in 0.1 M phosphate buffer containing 125 IE/mL heparin. After incubation times of 30, 60, 90 and 120 minutes at 37° C. and pH 7.1, aliquots of 100 μL were removed and diluted tenfold or 100-fold in 0.6% sodium thiosulfate solution to inactivate the NCT. Aliquots (50 μL) of these dilutions were spread on tryptic soy agar plates. The plates were incubated at 37° C. and colony forming units of Candida albicans were counted after 24 and 48 hours. The assays were performed three times serially and the mean count was reported (FIG. 9). […] Statistical analysis was performed by Student's paired t test and one way analysis of variance (P>0.05 between NCT without and NCT with heparin). […]

The next assay addresses T1, Fibrinogen (Homo sapiens, UniProt P02671+P02675+P02679).
T1 construct: from tissue; host or cells: citrated whole blood of volunteers
T1 sequence (P02671 20-629 limits assumed): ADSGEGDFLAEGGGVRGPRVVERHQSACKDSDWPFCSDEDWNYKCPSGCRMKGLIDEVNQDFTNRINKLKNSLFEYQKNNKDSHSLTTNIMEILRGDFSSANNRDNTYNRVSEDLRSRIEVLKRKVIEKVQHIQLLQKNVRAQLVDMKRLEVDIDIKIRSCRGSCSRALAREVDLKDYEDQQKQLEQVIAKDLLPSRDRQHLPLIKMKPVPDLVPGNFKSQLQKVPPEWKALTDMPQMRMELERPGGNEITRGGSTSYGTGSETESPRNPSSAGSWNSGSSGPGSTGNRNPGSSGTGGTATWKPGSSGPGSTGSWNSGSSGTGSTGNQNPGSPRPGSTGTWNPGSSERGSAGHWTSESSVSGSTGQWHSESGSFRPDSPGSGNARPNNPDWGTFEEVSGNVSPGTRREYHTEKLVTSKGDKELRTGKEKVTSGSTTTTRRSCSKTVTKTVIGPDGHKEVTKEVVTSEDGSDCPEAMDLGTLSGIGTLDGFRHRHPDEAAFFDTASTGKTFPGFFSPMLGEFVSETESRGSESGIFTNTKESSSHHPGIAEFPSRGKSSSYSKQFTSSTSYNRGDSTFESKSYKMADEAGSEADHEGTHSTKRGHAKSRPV
T1 sequence (P02675 31-491): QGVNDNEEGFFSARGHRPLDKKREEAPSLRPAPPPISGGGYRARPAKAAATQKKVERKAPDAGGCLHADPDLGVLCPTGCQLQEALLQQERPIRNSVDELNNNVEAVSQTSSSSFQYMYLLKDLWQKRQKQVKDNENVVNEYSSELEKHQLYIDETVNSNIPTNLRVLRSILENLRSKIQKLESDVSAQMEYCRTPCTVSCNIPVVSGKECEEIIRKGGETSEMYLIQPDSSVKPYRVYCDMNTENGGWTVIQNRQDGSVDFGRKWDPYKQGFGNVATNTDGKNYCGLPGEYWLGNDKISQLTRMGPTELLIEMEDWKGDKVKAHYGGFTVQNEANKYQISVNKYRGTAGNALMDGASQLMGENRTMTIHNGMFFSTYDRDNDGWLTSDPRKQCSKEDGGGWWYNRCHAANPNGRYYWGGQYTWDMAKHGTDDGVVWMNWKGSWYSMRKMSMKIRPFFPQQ
T1 sequence (P02679 27-453): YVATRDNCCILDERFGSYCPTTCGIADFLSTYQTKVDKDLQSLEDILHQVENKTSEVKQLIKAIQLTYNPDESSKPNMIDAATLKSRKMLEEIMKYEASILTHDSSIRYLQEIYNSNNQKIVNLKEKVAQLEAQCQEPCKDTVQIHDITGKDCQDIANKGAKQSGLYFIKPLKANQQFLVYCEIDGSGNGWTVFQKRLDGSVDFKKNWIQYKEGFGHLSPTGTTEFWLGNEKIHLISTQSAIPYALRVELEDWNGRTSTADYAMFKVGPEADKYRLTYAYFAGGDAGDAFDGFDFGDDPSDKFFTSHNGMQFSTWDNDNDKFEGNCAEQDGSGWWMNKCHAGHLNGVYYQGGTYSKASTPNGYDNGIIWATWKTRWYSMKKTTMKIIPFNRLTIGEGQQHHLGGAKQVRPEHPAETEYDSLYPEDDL
Description: Fibrinogen, Multifibren U test. In kind it is biochemical. To be noted: for Fibrinogen, mean value: mean of 11 subjects. As to the method: Whole blood was taken from a single volunteer and enriched with trisodium citrate (0.3 mL of a 0.106 molar solution per 3 mL whole blood) (S-Monovette®, Sarstedt, Nümbrecht, Germany). Portions of 1.8 mL citrate blood were mixed with 0.2 mL NCT in 0.9% saline. The following final (after dilution in blood) NCT concentrations were tested separately: 1% (55 mM); 0.5% (27.5 mM); 0.25% (13.75 mM); 0.1% (5.5 mM); 0.05% (2.75 mM); 0.025% (1.375 mM); and 0.01% (0.55 mM). A control without NCT was performed in parallel. The following commercial coagulation tests were performed according to the prescription of the manufacturer: prothrombin time (PT) was determined using Thromborel® S test (Dade Behring GmbH, Marburg, Germany), activated partial thromboplastin time (aPTT) was determined using Pathromtin* SL test (Dade Behring GmbH, Marburg, Germany); thrombin time (TT) was determined using BC Thrombin Reagent test (Dade Behring GmbH, Marburg, Germany); and fibrinogen was determined using Multifibren* U test (Dade Behring GmbH, Marburg, Germany).
Whole blood was taken from 11 volunteers and enriched with trisodium citrate (0.3 mL of a 0.106 molar solution per 3 mL whole blood) (S-Monovette®, Sarstedt, Nümbrecht, Germany). Commercial coagulation tests (as described in Example 6) were performed with the following samples: […]

Regarding `O=S(=O)(O)CCNCl` [NCT, N-chlorotaurine], the “influence of heparin on the killing of bacteria” value in assay [1] (0.1% NCT, virtually identical experiments) was “no statistically significant influence of heparin on the killing of bacteria”. Moreover, in assay [1] (1% NCT, 125 IE/mL heparin, pH 7.1, 37° C., 1-10 min), the “killing activity of NCT with vs without heparin” value is “no difference in the killing activity”. In addition, the “killing activity of NCT without vs with heparin” value in assay [2] is recorded as “no statistically significant difference in the killing activity”. The Fibrinogen at Fibrinogen (Example 6, single volunteer, 0.01% (0.55 mM) NCT final) is listed as 281.4; on Fibrinogen (Example 6, single volunteer, 0.025% (1.375 mM) NCT final), 199.4; at Fibrinogen (Example 6, single volunteer, 0.05% (2.75 mM) NCT final), “not detectable”; at Fibrinogen (Example 6, single volunteer, 0.1% (5.5 mM) NCT final), “not detectable”; on Fibrinogen (Example 6, single volunteer, 0.25% (13.75 mM) NCT final), “not detectable”; on Fibrinogen (Example 6, single volunteer, 0.5% (27.5 mM) NCT final) it was “not detectable”. The Fibrinogen entry on Fibrinogen (Example 6, single volunteer, 1% (55 mM) NCT final) is “not detectable”; at Fibrinogen (Example 7, 0.01% NCT, individual subjects 1-11), 170 mg/dL and 112 mg/dL and 240 mg/dL and 87 mg/dL and 194 mg/dL and 178 mg/dL and 226 mg/dL and 237 mg/dL and 224 mg/dL and 230 mg/dL and 215 mg/dL; at Fibrinogen (Example 7, 0.025% NCT, individual subjects 1-11) it was 40 mg/dL. In addition, the “Fibrinogen, mean value” on Fibrinogen (Example 7, 0.01% NCT) worked out at 192.1 mg/dL; at Fibrinogen (Example 7, 0.025% NCT) it was 40.0 mg/dL.
